Results from patent US7300946B2, “N-(substituted arylmethyl)-4-(disubstituted methyl) piperidines and pyridines” (Bayer CropScience AG, priority 2002, dated 2007).

System: tobacco budworm (Heliothis virescens [Fabricius])
Experiment: surface-treated diet test against the tobacco budworm
Assay type: in vivo
Details: tobacco budworm second instar larvae, 0.25 millimoles of candidate insecticide on the surface of the diet, five-day exposure; for Percent Mortality: compared to total number of insects infested; for Percent Growth Inhibition: inhibition of insect weight relative to untreated controls
Procedure, shortened: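 Wheat germ artificial diet surface-treated with 40 µL of 50 mM DMSO stock diluted 1:7 in 1:1 water/acetone (0.25 millimolar on diet), or sub-multiples for rate tests. One second-instar larva per well, 25° C, 60% RH, 5 days; percent weight inhibition vs DMSO controls and percent mortality.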

SMILES	Percent Mortality (surface-treated diet) [%]	Percent Growth Inhibition (surface-treated diet) [%]	Percent Mortality [%]	Percent Growth Inhibition [%]
COc1ccccc1C(=O)Nc1ccc(CN2CCC(C(OC(=O)Nc3cc(F)cc(F)c3)c3ccc(C(F)(F)F)cc3)CC2)cc1 (stereo not shown) [Compound 553]	100	100	–	–
CCON=Cc1ccc(CN2CCC(C(OC(=O)Nc3cc(F)cc(F)c3)c3ccc(Cl)cc3Cl)CC2)cc1 (stereo not shown) [Compound 531]	100	100	–	–
O=C(Nc1ccc(F)cc1)OC(c1ccc(Cl)c(Cl)c1)C1CCN(Cc2ccc(Oc3ncccn3)cc2)CC1 (stereo not shown) [Compound 722]	–	–	83	100
CCn1nnc(-c2ccc(CN3CCC(C(OCc4ccc(C(F)(F)F)cc4)c4ccc(OC(F)(F)F)cc4)CC3)cc2)n1 (stereo not shown) [Compound 304]	100	95	–	–
CC(C)OC(=O)Nc1ccc(CN2CCC(C(OC(=O)Nc3ccc(Cl)cc3)c3cc(Cl)cc(Cl)c3)CC2)cc1 (stereo not shown) [Compound 508]	100	100	–	–
C#CCOC(=O)Nc1ccc(C[N+]2([O-])CCC(=C(c3ccc(C(F)(F)F)cc3)c3ccc(C(F)(F)F)cc3)CC2)cc1 (stereo not shown) [Compound 838]	–	–	100	100
CCON=Cc1ccc(CN2CCC(C(OC(=O)Nc3cccc(F)c3)c3ccc(F)cc3)CC2)cc1 (stereo not shown) [Compound 527]	100	100	–	–
CCn1nnc(-c2ccc(CN3CCC(C(OC(=O)Nc4ccccc4)c4ccc(OC(F)(F)F)cc4)CC3)cc2)n1 (stereo not shown) [Compound 261]	100	100	–	–
O=C(Nc1cc(F)cc(F)c1)OC(c1ccc(F)cc1)C1CC[N+]([O-])(Cc2ccc(Oc3ccccn3)cc2)CC1 (stereo not shown) [Compound 752]	–	–	100	100
O=C(Nc1cc(F)cc(F)c1)OC(c1ccc(C(F)(F)F)cc1)C1CCN(Cc2ccc(-c3ccccc3)cc2)CC1 (stereo not shown) [Compound 544]	100	100	–	–
[O-][N+]1(Cc2ccc(Oc3ncccn3)cc2)CCC(=C(c2ccc(C(F)(F)F)cc2)c2ccc(Cl)c(F)c2)CC1 (stereo not shown) [Compound 852]	–	–	100	100
O=C(Nc1cccc(C(F)(F)F)c1)OC(c1ccc(F)cc1)C1CCN(Cc2ccc(Oc3ccccn3)cc2)CC1 (stereo not shown) [Compound 642]	100	100	–	–
O=C(Nc1ccc(Cl)cc1)OC(c1ccc(C(F)(F)F)cc1)C1CCN(Cc2ccc(Oc3ccccc3)cc2)CC1 (stereo not shown) [Compound 545]	100	100	–	–
Cn1nnc(-c2ccc(CN3CCC(C(NC(=O)Oc4ccccc4F)c4ccc(OC(F)(F)F)cc4)CC3)cc2)n1 (stereo not shown) [Compound 351]	50	100	–	–
CCON=Cc1ccc(CN2CCC(C(OC(=O)Nc3ccc(Br)cc3C(F)(F)F)c3ccc(C(F)(F)F)cc3)CC2)cc1 (stereo not shown) [Compound 208]	100	100	–	–
CCON=Cc1ccc(CN2CCC(C(OC(=O)Nc3ccc(Cl)cc3)c3ccc(F)cc3)CC2)cc1 (stereo not shown) [Compound 526]	100	100	–	–
CCn1nnc(-c2ccc(CN3CCC(C(OC(=O)Nc4ccc(Cl)cc4)c4ccc(F)c(F)c4)CC3)cc2)n1 (stereo not shown) [Compound 588]	100	100	–	–
CCON=Cc1ccc(CN2CCC(C(OC(=O)Nc3ccc(C(F)(F)F)cc3)c3ccc(C(F)(F)F)cc3)CC2)cc1 (stereo not shown) [Compound 205]	33	100	–	–
CC(C)OC(=O)Nc1ccc(CN2CCC(=C(c3ccc(C(F)(F)F)cc3)c3ccc(C(F)(F)F)cc3)CC2)cc1 [Compound 58]	100	100	–	–
CCOS(=O)(=O)[O-].CCO[N+]1(Cc2ccc(Oc3ccccn3)cc2)CCC(C(OC(=O)Nc2ccc(Cl)cc2)c2ccc(C(F)(F)F)cc2)CC1 (stereo not shown) [Compound 860, N-(4-chlorophenyl)({1-ethoxy-1-[(4-(2-pyridyloxy)phenyl)methyl](4-piperidyl)}[4-(trifluoromethyl)phenyl]methoxy)carboxamide, ethyl sulfate salt]	–	–	100	100
CCn1nnc(-c2ccc(CN3CCC(C(OC(=O)Nc4ccc(Cl)cc4)c4cc(F)cc(F)c4)CC3)cc2)n1 (stereo not shown) [Compound 590]	100	100	–	–
[O-][N+]1(Cc2ccc(Oc3ncccn3)cc2)CCC(=C(c2ccc(C(F)(F)F)cc2)c2cc(Cl)cc(Cl)c2)CC1 (stereo not shown) [Compound 856]	–	–	50	100
O=C(NCc1ccccc1)OC(c1ccc(C(F)(F)F)cc1)C1CCN(Cc2ccc(Oc3ccccn3)cc2)CC1 (stereo not shown) [Compound 659]	50	100	–	–
FC(F)(F)c1ccc(C(=C2CCN(Cc3ccc(Oc4ncccn4)cc3)CC2)c2ccc(Cl)c(Cl)c2)cc1 [Compound 818]	–	–	100	100

SMILES	Percent Mortality (surface-treated diet) [%]	Percent Growth Inhibition (surface-treated diet) [%]	Percent Mortality [%]	Percent Growth Inhibition [%]
CCn1nnc(-c2ccc(CN3CCC(=C(c4ccc5c(c4)OC(F)(F)O5)c4ccc5c(c4)OC(F)(F)O5)CC3)cc2)n1 [Compound 83]	100	100	–	–
N#Cc1ccc(Oc2ccc(C[N+]3([O-])CCC(=C(c4ccc(C(F)(F)F)cc4)c4ccc(C(F)(F)F)cc4)CC3)cc2)nc1 (stereo not shown) [Compound 111]	100	100	–	–
FC(F)(F)c1ccc(C(=C2CCN(Cc3ccc(Oc4ncccn4)cc3)CC2)c2ccccc2Cl)cc1 [Compound 814]	–	–	100	100
O=C(NS(=O)(=O)c1ccc(Cl)cc1)OC(c1ccc(C(F)(F)F)cc1)C1CCN(Cc2ccc(Oc3ccccn3)cc2)CC1 (stereo not shown) [Compound 668]	0	25	–	–
CCON=Cc1ccc(CN2CCC(C(OC(=O)Nc3ccc(Cl)cc3)c3ccc(C(F)(F)F)cc3)CC2)cc1 (stereo not shown) [Compound 182]	100	100	–	–
N#Cc1cccnc1Oc1ccc(CN2CCC(C(OC(=O)Nc3cc(F)cc(F)c3)c3ccc(C(F)(F)F)cc3)CC2)cc1 (stereo not shown) [Compound 687]	100	100	–	–
CCON=Cc1ccc(CN2CCC(C(OC(=O)Nc3cc(F)cc(F)c3)c3ccc(F)cc3)CC2)cc1 (stereo not shown) [Compound 528]	100	100	–	–
O=C(Nc1cccc(F)c1)OC(c1ccc(F)cc1)C1CCN(Cc2ccc(Oc3ncccn3)cc2)CC1 (stereo not shown) [Compound 716]	–	–	100	100
O=C(Nc1cc(Cl)cc(Cl)c1)OC(c1ccc(C(F)(F)F)cc1)C1CCN(Cc2ccc(Oc3ccccn3)cc2)CC1 (stereo not shown) [Compound 232]	100	100	–	–
O=C(Nc1ccc(F)cc1)OC(c1ccc(C(F)(F)F)cc1)C1CCN(Cc2ccc(Oc3ccccn3)cc2)CC1 (stereo not shown) [Compound 675]	100	100	–	–
CC(C)NC(=S)OC(c1ccc(C(F)(F)F)cc1)C1CCN(Cc2ccc(Oc3ccccn3)cc2)CC1 (stereo not shown) [Compound 777]	–	–	67	100
C=CCOC(=O)Nc1ccc(C[N+]2([O-])CCC(=C(c3ccc(C(F)(F)F)cc3)c3ccc(C(F)(F)F)cc3)CC2)cc1 (stereo not shown) [Compound 836]	–	–	100	100
O=C(Nc1ccc(Cl)cc1)OC(c1ccc(C(F)(F)F)cc1)C1CC[N+]([O-])(Cc2ccc(-c3ccccc3)cc2)CC1 (stereo not shown) [Compound 747]	–	–	100	100
CCCOc1ccc(CN2CCC(C(OC(=O)Nc3ccc(C(F)(F)F)cc3)c3ccc(Cl)c(Cl)c3)CC2)cc1 (stereo not shown) [Compound 484]	100	100	–	–
O=C(Nc1ccc(Cl)cc1)OC(c1ccc(C(F)(F)F)cc1)C1CCN(Cc2ccc(Oc3ccc(Cl)nn3)cc2)CC1 (stereo not shown) [Compound 737]	–	–	100	100
CC(C)OC(=O)Nc1ccc(CN2CCC(C(OC(=O)Nc3cc(F)cc(F)c3)c3ccc(Cl)cc3)CC2)cc1 (stereo not shown) [Compound 502]	100	100	–	–
Fc1cc(C(=C2CCN(Cc3ccc(Oc4ncccn4)cc3)CC2)c2ccc(C(F)(F)F)cc2)ccc1Cl [Compound 821]	–	–	100	100
O=C(Nc1ccc(F)c(F)c1)OC(c1ccc(C(F)(F)F)cc1)C1CCN(Cc2ccc(Oc3ncccn3)cc2)CC1 (stereo not shown) [Compound 732]	–	–	100	100
CCn1nnc(-c2ccc(CN3CCC(C(OC(=O)Nc4ccc(Br)cc4)c4ccc(C(F)(F)F)cc4)CC3)cc2)n1 (stereo not shown) [Compound 269]	100	100	–	–
CCn1nnc(-c2ccc(CN3CCC(C(OC(=O)Nc4cccc(C(F)(F)F)c4)c4cccc(F)c4)CC3)cc2)n1 (stereo not shown) [Compound 586]	100	100	–	–
O=C(Nc1cc(F)cc(F)c1)OC(c1cccc(C(F)(F)F)c1)C1CCN(Cc2ccc(Oc3ccccn3)cc2)CC1 (stereo not shown) [Compound 654]	100	100	–	–
O=C(Nc1ccc(F)cc1)OC(c1ccc(OC(F)(F)F)cc1)C1CCN(Cc2ccccc2)CC1 (stereo not shown) [Compound 458]	0	94	–	–
[O-][N+]1(Cc2ccc(Oc3ncccn3)cc2)CCC(=C(c2ccc(Cl)cc2)c2ccc(Cl)cc2)CC1 (stereo not shown) [Compound 844]	–	–	100	100
